Laboratory results reported in patent US8940774B2, “Tris-Quaternary Ammonium Salts and Methods for Modulating Neuronal Nicotinic Acetylcholine Receptors” (University of Kentucky Research Foundation, priority 2005, dated 2015).

Biological target: T1, α7-type neuronal nicotinic acetylcholine receptors (Rattus norvegicus, UniProt Q05941)
T1 construct: from tissue; host or cells: rat brain membranes (whole brain without cortex, striatum and cerebellum)
Assay: Inhibition of [3H]Methyllycaconitine (MLA) binding assay, rat brain membranes
Conditions: read-out: K1 value, displacement of [3H]MLA binding
Description: Rat brain was dissected into the whole brain tissue without cortex, striatum and cerebellum and was frozen in liquid nitrogen and stored at −70° C. until use. The brain tissue was homogenized with a Tekmar Polytron (setting 40) in 20 volumes of ice-cold hypotonic buffer (2 mM HEPES, 14.4 mM NaCl, 0.15 mM KCl, 0.2 mM CaCl2 and 0.1 mM MgSO4, pH=7.5). The homogenate was incubated at 37° C. for 10 minutes and centrifuged at 25,000 g for 15 minutes at […] The pellet was washed 3 times more by resuspension in 20 volumes of the same buffer and centrifugation at the above parameters. The final pellet was stored at −20° C. under 4.6 mL of the incubation buffer and was suspended just before the incubation with radioligand.
The binding of [^3H]MLA to probe α7-type neuronal nicotinic acetylcholine receptors was measured using a modification of the method of Davies at al., “Characterisation of the binding of [^3H]methyllycaconitine (MLA): a radioligand for labelling α7-type neuronal nicotinic acetylcholine receptors,” Neuropharmacology, 38, 679-690 (1999). [^3H]MLA (25.4 Ci/mmol) was purchased from Tocris Cookson Ltd., Bristol, U.K. Binding was performed in duplicate, in a final volume of 250 μL of the incubation medium, containing 20 mM HEPES, 144 mM NaCl, 1.5 mM KCl, 2 mM CaCl2, 1 mM MgSO4 and 0.05% BSA, pH=7.5. Reaction was initiated by the addition of 100 μL of membrane suspension to the samples containing a desired concentration of test compounds and […] [^3H]MLA (final concentration) and incubated for 2 hours it room temperature. Total binding was measured in the absence of unlabelled ligand, and nonspecific binding was determined by the presence of 1 μM unlabelled MLA. The binding reaction was terminated by dilution of samples with 3 mL of ice-cold incubation buffer followed by immediate filtration through glass fiber filters (S&S, grade #32, presoaked in 0.5% polyethylenimine) using a Brandel harvester system. Filters were rinsed three times with 3 mL of ice-cold buffer, transferred to scintillation vials and 4 mL of scintillation cocktail was added. Protein was measured using the Bradford dye-binding procedure with bovine serum albumin as the standard.
The tris-quaternary ammonium salts were evaluated for their ability to displace [^3H]MLA binding from rat brain membranes.
Data are % inhibition at 100 nM concentration of analog for at least 1-3 independent experiments. Specific binding in the [^3H]NIC binding assay is calculated at the difference between the total binding of [^3H]NIC and nonspecific binding in the presence of 10 μM cold nicotine. Specific binding for the [^3H]MLA binding assay is calculated as the difference between the total binding of 2.5 nM [^3H]MLA to the receptors alone and its nonspecific binding in the presence of 1 μM cold MLA. Analog-induced inhibition of nicotine-evoked [^3H]DA release is calculated as a percent of that in the absence of analog.

T1 sequence (Q05941 23-502): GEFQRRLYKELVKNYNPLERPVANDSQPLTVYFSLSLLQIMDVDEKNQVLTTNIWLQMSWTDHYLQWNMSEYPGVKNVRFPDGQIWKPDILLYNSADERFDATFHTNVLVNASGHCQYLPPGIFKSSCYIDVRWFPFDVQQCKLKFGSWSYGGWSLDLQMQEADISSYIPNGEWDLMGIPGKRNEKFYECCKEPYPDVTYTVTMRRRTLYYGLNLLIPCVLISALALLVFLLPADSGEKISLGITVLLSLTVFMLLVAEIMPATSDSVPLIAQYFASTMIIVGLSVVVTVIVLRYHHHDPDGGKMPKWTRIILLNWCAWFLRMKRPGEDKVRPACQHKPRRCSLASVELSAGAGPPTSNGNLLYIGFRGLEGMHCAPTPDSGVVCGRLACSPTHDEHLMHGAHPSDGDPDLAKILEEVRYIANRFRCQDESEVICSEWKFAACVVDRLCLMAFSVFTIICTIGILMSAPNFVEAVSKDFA

## α-bungarotoxin [reference compound]
  Ki: 28.6 ± 5.4 nM
